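Where inhibition never reached the appropriate level, the endpoint shown equals the highest concentration tested. Otherwise, values were interpolated linearly from a five-concentration, 48-hour dose response in 96-well plates. The concentration for 50% growth inhibition is given as GI50. TGI: total growth inhibition.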

Common to all, as to test: DTP human tumour cell line panel, 48 h
The subject of test [1] is COLO 205 colon.
Test [2] deals with BT-549 breast.
Test [3] concerns HCT-116 colon.
The subject of test [4] is MCF7 breast.
The subject of test [5] is M14 melanoma.
For test [6], the system named is SK-MEL-2 melanoma.
In test [7] the test system is MDA-MB-435.
Test [8] concerns MALME-3M melanoma.
Test [9] concerns SNB-75 CNS.
In test [10] the test system is HOP-92 NSCLC.

Take `O=C(CCl)Nc1cc(Cl)c(Cl)cc1Cl`: the TGI (commonly the concentration giving total growth inhibition) worked out at 3.35 µM in test [1]; 3.53 µM in test [2]; 2.94 µM in [3]; 3.6 µM in [4]; 2.96 µM in [5]; 3.44 µM in test [6]. The TGI was found to be 2.77 µM in [7] and 2.88 µM in test [8].

As to `CCN(CC)CCN1C(=O)C2C3C(=O)CC(C)(CC3C)C2C1=O` (stereo not given), the GI50 in [1], in test [9], in test [2], in test [3], in test [5] and in test [10] was greater than 100 µM throughout. Moreover, the GI50 in test [6], in [7] and in test [8] was greater than 100 µM each time. For the same molecule, the concentration for total growth inhibition (TGI) in [1], in [9], in test [2], in test [3], in test [5] and in test [10] was greater than 100 µM in each case. The TGI in test [6], in test [7] and in test [8] was greater than 100 µM throughout.

For the molecule `CC1=C(C(=O)NCc2ccccc2)C(c2ccccc2C)C(C(=O)NCc2ccccc2)=C(C)N1`, the TGI is greater than 100 µM in [1]; greater than 94.1 µM in [9]; 37.6 µM in test [3]; 42.8 µM in test [5]; greater than 86.8 µM in test [10]; 38.5 µM in test [6]. The molecule also yielded a TGI in [8] greater than 100 µM.

Consider `COc1cc2c(cc1O)CN1CCC23C=C[C@@H](O)CC13` (stereo not given in full), for which the TGI in [1] was 78.1 µM; in test [9], greater than 100 µM; in test [3], greater than 100 µM; in test [5], greater than 100 µM; in test [10] it was greater than 100 µM; in [6] it was greater than 100 µM. In [8], the TGI is greater than 100 µM.

Consider `Cc1cc(=O)n(-c2c(C)cccc2Cl)c(/C=C(\O)c2ccncc2)n1`, for which the TGI in [1], in test [9], in test [3], in test [5], in [10] and in test [6] was greater than 100 µM in each case. The same molecule had a TGI in [8] greater than 100 µM.

Consider `C[C@H](CS)C(=O)N1c2ccccc2C[C@H]1C(=O)O`, for which the TGI in [1], in test [9], in test [2], in test [3], in test [4] and in test [6] was greater than 100 µM each time.

For the molecule `CC(=O)Nc1ccc(/C=C2\N=C(c3ccccc3)OC2=O)cc1`, the TGI in test [1], in [9], in test [3], in test [5], in test [10] and in test [6] was greater than 100 µM in each case. In addition, the total growth inhibition concentration (TGI) in [8] was greater than 100 µM.

Turning to `CC(=O)OCC1OC(OCc2ccccc2)C(Br)C(OC(C)=O)C1OC(C)=O` (stereo not given), the total growth inhibition concentration (TGI) in test [1], in [3], in [5], in test [10] and in test [8] was greater than 100 µM throughout.

`CCOC(=O)C(NO)C(Sc1ccccc1)c1ccc(OC)cc1` (stereo not given): the TGI in test [1], in test [9], in [3], in [5], in test [10] and in test [6] was greater than 100 µM each time. In test [8], this molecule came in with a TGI greater than 100 µM.

With `CC(=O)[CH-]C(=O)c1ccccc1.CC(=O)[CH-]C(=O)c1ccccc1.CC(C)CCC[C@H](C)C1CCC2[C@@H]3CC=C4C[C@@H]([O-])CC[C@]4(C)C3CC[C@@]21C.CC(C)CCC[C@H](C)C1CCC2[C@@H]3CC=C4C[C@@H]([O-])CC[C@]4(C)C3CC[C@@]21C.Cl.[Ti+4]` (stereo not given in full), the GI50 (in general, the concentration at which growth is held to half of that of the control) was greater than 25 µM in [1]; 22.1 µM in test [9]; greater than 25 µM in [3]; greater than 25 µM in [5]; greater than 25 µM in test [6]; 21.4 µM in test [8]. For the same molecule, the total growth inhibition concentration (TGI) in test [1], in [9], in test [3], in test [5], in [6] and in [8] was greater than 25 µM in each case.

`CCOc1ccc(OCC)c([P+](c2ccccc2)(c2ccccc2)c2ccccc2)c1`: the TGI stood at 1.31 µM in test [1]; 10.6 µM in test [9]; 11.8 µM in test [3]; 12.6 µM in test [5]; 0.95 µM in test [10]; 23.3 µM in [8].

On to `COc1ccc2c(c1)[n+](=O)c(C(=O)C/C(=N/NC(=O)C[N+](C)(C)C)C(=O)Nc1cccc(C)c1C)c(C)n2O`, for which the TGI in test [1], in test [9], in test [3], in test [5], in test [10] and in test [6] was greater than 100 µM in each case. The total growth inhibition concentration (TGI) in test [8] was greater than 100 µM.

Consider `CN(C)CCn1cnc2ncccc2c1=O`, for which the total growth inhibition concentration (TGI) in test [1], in test [9], in test [3], in test [5], in test [10] and in test [6] was greater than 100 µM throughout. The molecule also came in with a concentration for total growth inhibition (TGI) in test [8] greater than 100 µM.

For `Cc1ccc(Cl)cc1NC(=O)c1cc2ccccc2cc1O`, the GI50 was 1.7 µM in test [1]; 0.52 µM in test [9]; 0.294 µM in [2]; 0.284 µM in test [3]; 1.35 µM in test [4]; 0.325 µM in test [5]. Moreover, the GI50 is 0.222 µM in test [10], 0.19 µM in [6] and 0.211 µM in [8]. For the same molecule, the TGI in test [1] came out at 3.48 µM; in [9], 15.3 µM; in test [2], 1.28 µM; in [3], 0.924 µM; in test [4], 4.88 µM; in test [5], 1.21 µM. Besides, the total growth inhibition concentration (TGI) in test [10] is 0.724 µM; in [6], 0.707 µM; in test [8] it was 0.692 µM.

In the case of `COc1ccc(S(=O)(=O)N[C@H](C(=O)O)c2ccccc2)cc1`, the TGI in test [1], in test [9], in test [3], in test [5], in [6] and in test [8] was greater than 100 µM each time.

Take `c1ccc(-c2n(Cc3ccc4ccccc4c3)cc[n+]2Cc2ccc3ccccc3c2)cc1`: the GI50 in test [9] is 1.16 µM; in test [3], 0.665 µM; in test [7], 1.02 µM; in test [8], 1.14 µM. Moreover, the TGI in test [9] was 2.58 µM; in test [3], 2.14 µM; in test [7], 2.24 µM; in test [8], 2.56 µM.

Turning to `COC(=O)C1(C)CC2C(C)(CCC3(C)C4=CC=C5C(=CC(=O)C(O)=C5C)C4(C)CCC23C)CC1O` (stereo not given), the concentration for total growth inhibition (TGI) was determined as 1.72 µM in test [1]; 3.54 µM in [9]; 1.89 µM in [3]; 2.86 µM in test [4]; 3.26 µM in test [5]; 2.82 µM in test [10]. The TGI in test [6] was 2.94 µM; in test [7], 2.31 µM; in test [8], 2.24 µM.

In the case of `COc1cccc2nc3ccccc3nc12`, the total growth inhibition concentration (TGI) in test [1] is greater than 100 µM; in [9] it was greater than 100 µM; in test [3], greater than 100 µM; in test [4], greater than 100 µM; in test [5] it was greater than 100 µM; in [10], 78.1 µM. Besides, the TGI in test [7] and in [8] was greater than 100 µM each time.

For `C/C(=N\n1c(O)c(C#N)cc(C#N)c1=O)c1ccncc1`, the GI50 in [1], in test [3], in [4], in [5], in test [10] and in [6] was greater than 100 µM in each case. The GI50 in test [7] and in test [8] was greater than 100 µM throughout. For the same molecule, the concentration for total growth inhibition (TGI) in test [1], in [3], in test [4], in test [5], in [10] and in test [6] was greater than 100 µM throughout. Further, the TGI in [7] and in test [8] was greater than 100 µM throughout.

On to `COC1OC(CBr)C(OC(=O)c2ccccc2)C(OS(=O)(=O)c2ccc(C)cc2)C1Br` (stereo not given), for which the concentration for total growth inhibition (TGI) in test [1], in [3], in test [5], in test [10], in test [6] and in test [8] was greater than 100 µM throughout.

Turning to `O=C(N/C(=C\c1ccccc1Cl)c1nc2ccccc2[nH]1)c1ccccc1`, the TGI in test [1] is greater than 100 µM; in [5] it was 54.3 µM; in test [10], 34.1 µM; in [6] it was 51.8 µM; in test [8], 74.8 µM.

On to `COC(=O)C1C(=O)O[C@@H](c2ccc(OC)c(OC)c2OC)C1C(=O)OC` (mixture of isomers), for which the TGI in [1], in [9], in test [3], in test [5], in test [10] and in test [8] was greater than 100 µM each time.

Turning to `CN(NC1OC(CO)C(O)C(O)C1O)c1ccccc1` (stereo not given), the total growth inhibition concentration (TGI) in [1], in [3], in test [5], in test [10] and in test [8] was greater than 100 µM throughout.

As for `COC1[C@H](NC(=O)OC(C)(C)C)C(=O)N1Cc1ccccc1` (stereo not given in full), the concentration for total growth inhibition (TGI) in [1], in test [9], in test [3], in test [5], in test [10] and in test [6] was greater than 100 µM throughout. In addition, the TGI in [8] is greater than 100 µM.

`CN(C)C(=O)NC(=S)N(C)C`: the concentration for total growth inhibition (TGI) in test [9], in test [3], in [5], in test [10], in [6] and in test [8] was greater than 100 µM throughout.

Turning to `CCCCCCCCCCCCCCCCc1c(C(=O)OC)nc(NN)[nH]c1=O`, the TGI in test [1], in test [9], in test [3], in test [5], in test [10] and in [6] was greater than 50 µM in each case. In [8], this molecule registered a TGI greater than 50 µM.

Take `CC1CCC(=O)C(C(O)CC2CC(=O)N(c3ccccc3)C(=O)C2)C1` (stereo not given): the total growth inhibition concentration (TGI) in test [1], in test [9], in test [3], in test [5], in test [10] and in test [8] was greater than 100 µM in each case.

With `Cc1nc(N)c(-c2ccccc2)s1`, the TGI was greater than 66.7 µM in test [1]; greater than 100 µM in test [9]; greater than 66.8 µM in test [3]; greater than 100 µM in [5]; greater than 100 µM in test [10]; greater than 100 µM in [6]. Also, the total growth inhibition concentration (TGI) in test [8] was greater than 100 µM.

As to `Clc1ccc(OCc2nnc3n2N=C(c2ccc(Br)cc2)CS3)cc1`, the concentration for total growth inhibition (TGI) is greater than 100 µM in test [3], 41 µM in [10], 66.9 µM in [6] and greater than 100 µM in test [8].

Take `CCN(CC)CC(=O)NC1c2ccccc2Oc2c(C)cccc21` (stereo not given): the total growth inhibition concentration (TGI) in [1], in test [9], in test [3] and in [5] was greater than 100 µM throughout.

Regarding `O=C(CO[N+](=O)[O-])OC/C=C/c1ccccc1`, the total growth inhibition concentration (TGI) in [1], in [9], in [3], in [5], in test [10] and in test [6] was greater than 100 µM each time. In test [8], the concentration for total growth inhibition (TGI) is greater than 100 µM.

With `COc1ccc(-c2ccccc2)c2[nH]c3c(c12)CCNC3=O`, the TGI in test [1], in [9], in test [3], in test [5], in test [10] and in [8] was greater than 100 µM in each case.

The record behind these values is PubChem BioAssay (NCI).
